What was measured:
WT hKCNK3 channel = biological target: T1, WT hKCNK3 channel (Homo sapiens, UniProt O14649); assay: Whole-cell patch clamp of WT hKCNK3 channels expressed in COS-7 cells, drug application; type: cell-based; settings: 10 μM, current at +60 mV, pH 7.4
T1 construct: expressed in transfected cells; host or cells: COS-7
Procedure: Functional analysis of the KCNK3 channel was performed to evaluate the functional effects of the rare genetic variants identified and to provide insight into the disease mechanism. pIRES-CD8-hKCNK3 was kindly provided by Florian Lesage (Institut de Pharmacologie Moléculaire et Cellulaire, Centre National de la Recherche Scientifique and Université de Nice Sophia Antipolis, Valbonne, France). hKCNK3 DNA was amplified and inserted into pcDNA 3.1 (+) vector (Invitrogen). Site-directed mutagenesis was performed using the QuikChange kit (Stratagene) and all constructs were sequenced before use. COS-7 cells (American Type Culture Collection) were grown under conventional conditions (5% CO2, DMEM (Gibco) +GlutaMax medium (Gibco) and 10% fetal bovine serum (Gibco)). […] The topology of the KCNK3 channel was based on the crystal structure of TWIK-1 channel^43 and alignment was performed using GeneDoc.^44 Membrane currents were measured with whole-cell patch-clamp procedures using Axopatch 200B amplifiers (Axon Instruments). […] Current measured at +60 mV was selected for comparison of constructs and drug actions. […] Analyzed data are shown as mean+/−S.E.M. Statistical significance was determined using one-way ANOVA. p<0.05 was considered statistically significant. […]

TASK-1 = TASK-1 (Homo sapiens, UniProt O14649); settings: cited from earlier work
Sequence of TASK-1 (O14649 whole entry): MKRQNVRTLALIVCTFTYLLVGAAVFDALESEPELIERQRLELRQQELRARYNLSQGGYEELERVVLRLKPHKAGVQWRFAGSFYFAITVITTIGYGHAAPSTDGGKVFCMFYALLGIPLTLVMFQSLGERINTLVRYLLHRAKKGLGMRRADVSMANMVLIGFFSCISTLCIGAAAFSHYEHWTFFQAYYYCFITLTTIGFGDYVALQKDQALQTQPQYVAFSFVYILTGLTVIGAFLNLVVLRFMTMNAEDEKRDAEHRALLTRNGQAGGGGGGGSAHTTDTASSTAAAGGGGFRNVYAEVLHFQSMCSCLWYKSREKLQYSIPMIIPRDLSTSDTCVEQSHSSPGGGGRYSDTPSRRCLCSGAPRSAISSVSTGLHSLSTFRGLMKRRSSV

[1] = cited from earlier work

T1 sequence (O14649 whole entry): as above

CCCCCc1ccc(/C=C/C(=O)Nc2cc(Cl)ccc2C(=O)O)cc1 [ONO RS-082]
WT hKCNK3 current after application of drug (WT hKCNK3 channel): robust increase

FC(F)OC(Cl)C(F)(F)F (stereo not drawn) [Isoflurane, 2-chloro-2-(difluoromethoxy)-1,1,1-trifluoro-ethane]
effect on TASK-1 channel (TASK-1): activated

FC(F)(F)C(Cl)Br (stereo not drawn) [Halothane, 2-bromo-2-chloro-1,1,1-trifluoroethane]
effect on TASK-1 channel (TASK-1): activated

CCCCC[C@H](O)CC[C@@H]1[C@H]2Cc3cccc(OCC(=O)O)c3C[C@H]2C[C@H]1O [Treprostinil]
dose linearity of pharmacokinetics ([1]; continuous subcutaneous, dose range 1.25 to 125 ng/kg/min, two-compartment model): linear | excreted in feces ([1]; in vivo): 13% | excreted in the urine as identified metabolites ([1]; in vivo): 64% | excreted in the urine as unchanged drug ([1]; in vivo): 4% | half life ([1]; in vivo): 4 h | metabolism ([1]; in vivo): substantially metabolized by the liver
